Results as given in patent publication US20250179103A1, “6-OXODECAHYDROPYRROLO[1,2-A][1,5]DIAZOCINE AND 6-OXODECAHYDRO-4H-PYRROLO[2,1-D][1,5]THIAZOCINE DERIVATIVES AS STAT3 AND STAT6 MODULATORS FOR THE TREATMENT OF CANCER AND INFLAMMATORY CONDITIONS” (Recludix Pharma, Inc., priority 2022, published 2025).

Tests used:
[1] = test system: pY705-STAT3 in Peripheral Blood Mononuclear Cells (PBMC); assay: MSD-pSTAT-PBMC Assay (pSTAT3, IL-6 stimulated); type: cell-based, Human; conditions: Homo sapiens, compound 3 hrs, then 10 ng/mL IL-6 for 10 min
Excerpt: (§1) Cryopreserved Peripheral Blood Mononuclear Cells (PBMC) are from AllCells. Recombinant Human IL-4 and IL-6 are from Peprotech. Mouse monoclonal anti-STAT3 antibody, rabbit monoclonal anti-pY705-STAT3 antibody, rabbit monoclonal Anti-pY641-STAT6 antibody, and lysis buffer are from Cell Signaling Technology (CST). Mouse monoclonal anti-STAT6 antibody is from BioLegend. Assay plates, blocker, and anti-rabbit secondary antibody are from Meso Scale Discovery (MSD).
(§2) Cryopreserved PBMCs were thawed out and allowed to recover overnight in IMDM+10% heat-inactivated FBS prior to plating 50,000 (STAT3) or 25,000 (STAT6) cells per well in 96-well U-bottom tissue culture plates. Cells were treated with compound for 3 hrs, then stimulated with 10 ng/mL IL-6 (STAT3) or 1 ng/mL IL-4 (STAT6) for 10 min. Cells were then spun down and washed with ice-cold PBS prior to lysing the cell pellet with 1× lysis buffer (CST) with 1×HALT protease and phosphatase inhibitor cocktail (Thermo). Lysates were transferred to and incubated overnight at 4° C. with shaking in QuickPlex 96-well high bind assay plates (MSD) pre-coated overnight with 30 μL per well of 0.6 μg/mL mouse monoclonal anti-STAT3 antibody (STAT3) or 2 μg/mL mouse monoclonal anti-STAT6 antibody (STAT6) in 1×PBS, and pre-blocked for 1 hour with 3% Blocker-A (MSD). Captured protein in the assay plates were then washed and probed with 25 μL per well of 0.25 μg/ml rabbit monoclonal anti-pY705-STAT3 antibody (STAT3) or […] rabbit monoclonal Anti-pY641-STAT6 antibody (STAT6) in 1% Blocker-A for 1 hour at room temperature with shaking, then washed and probed with 25 ul per well of 1 ug/ml Sulfo-TAG Labeled Goat Anti-Rabbit Antibody (MSD) in 1% Blocker-A for 1 hour at room temperature with shaking. Assay plates were then washed and 150 μL of 1× Read Buffer-T (MSD) was added to each well prior to reading on an SQ120 MSD Plate Reader. Assay signal from each sample was subtracted by the signal from unstimulated control wells and normalized to DMSO control wells. IC50 values were calculated using Graph Pad Prism Dose-Response Nonlinear Regression with variable slope. For both pSTAT3 and pSTAT6 A=≤100 nM; B=>100-1000 nM; C=>1000-3000 nM; and D=>3 μM.

[2] = test system: pY641-STAT6 in Peripheral Blood Mononuclear Cells (PBMC); assay: MSD-pSTAT-PBMC Assay (pSTAT6, IL-4 stimulated); type: cell-based, Human; conditions: Homo sapiens, compound 3 hrs, then 1 ng/mL IL-4 for 10 min
Excerpt: as §1, §2

CCN1CC[C@H]2CC[C@@H](C(=O)N3C[C@@H](C#N)[C@H](c4ccccc4)C3)N2C(=O)[C@@H](NC(=O)c2cc3cc([C@H](F)P(=O)(OCCSC(=O)CC(C)C)OCCSC(=O)CC(C)C)ccc3s2)C1 (single isomer, unassigned) [Compound 339, S,S′-(((((R or S)-(2-(((5S,8S,10aR)-8-((3S,4R or 3R,4S)-3-cyano-4-phenylpyrrolidine-1-carbonyl)-3-ethyl-6-oxodecahydropyrrolo[1,2-a][1,5]diazocin-5-yl)carbamoyl)benzo[b]thiophen-5-yl)fluoromethyl)phosphoryl)bis(oxy))bis(ethane-2,1-diyl))bis(3-methylbutane thioate)]
IC50 [1]: 1000 to 3000 nM
IC50 [2]: 100 to 1000 nM

COC(=O)N1CC[C@H]2CC[C@@H](C(=O)N3C[C@H](c4ccccc4)[C@@H](C#N)C3)N2C(=O)[C@@H](NC(=O)c2cc3cc(C(F)(F)P(=O)(OCOC(=O)C(C)(C)C)OCOC(=O)C(C)(C)C)ccc3s2)C1 (relative stereo) [Compound 349, ((((2-(((5S,8S,10aR)-8-((rel-trans)-3-cyano-4-phenylpyrrolidine-1-carbonyl)-3-(methoxycarbonyl)-6-oxodecahydropyrrolo[1,2-a][1,5]diazocin-5-yl)carbamoyl)benzo[b]thiophen-5-yl)difluoromethyl)phosphoryl)bis(oxy)) bis(methylene) bis(2,2-dimethylpropanoate)]
IC50 [1]: 100 to 1000 nM
IC50 [2]: ≤ 100 nM

CC(C)OC(=O)[C@H](C)NP(=O)(Cc1ccc2sc(C(=O)N[C@H]3CN(Cc4ccn5ccnc5c4)CC[C@H]4CC[C@@H](C(=O)N5CC(c6cccnc6)C5)N4C3=O)cc2c1)NCc1ccccc1 (stereo partly drawn) [Compound 333]
IC50 [1]: > 3000 nM

CC(C)OC(=O)OCOP(=O)(Cc1ccc2sc(C(=O)N[C@H]3CN(Cc4ccn5ccnc5c4)CC[C@H]4CC[C@@H](C(=O)N5CC(c6cccnc6)C5)N4C3=O)cc2c1)OCOC(=O)OC(C)C [Compound 338, ((((2-(((5S,8S,10aR)-3-(imidazo[1,2-a]pyridin-7-ylmethyl)-6-oxo-8-(3-(pyridin-3-yl)azetidine-1-carbonyl)decahydropyrrolo[1,2-a][1,5]diazocin-5-yl)carbamoyl)benzo[b]thiophen-5-yl)methyl)phosphoryl)bis (oxy))bis(methylene)diisopropylbis(carbonate)]
IC50 [1]: 100 to 1000 nM

CCCOC(=O)[C@H](C)NP(=O)(Oc1ccccc1)C(F)c1ccc2ccc(C(=O)N[C@H]3CN(C(=O)c4noc5ccc(C)cc45)CC[C@H]4CC[C@@H](C(=O)N5CCN(c6nsc7ccccc67)CC5)N4C3=O)cc2c1 (stereo partly drawn) [Compound 411, propyl (((7-(((5S,8S,10aR)-8-(4-(benzo[d]isothiazol-3-yl)piperazine-1-carbonyl)-3-(5-methylbenzo [d]isoxazole-3-carbonyl)-6-oxodeca-hydropyrrolo [1,2-a][1,5]diazocin-5-yl)carbamoyl)naphthalen-2-yl)fluoromethyl) (phenoxy)phosphoryl)-L-alaninate]
IC50 [2]: > 3000 nM

CCCOC(=O)[C@H](C)NP(=O)(Oc1ccccc1)[C@@H](F)c1ccc2ccc(C(=O)N[C@H]3CN(C(=O)c4noc5ccc(C)cc45)CC[C@H]4CC[C@@H](C(=O)N5C[C@H](c6ccn(C)c(=O)c6)CC56CC6)N4C3=O)cc2c1 (stereo partly drawn) [Compound 421, propyl (((R)-fluoro(7-(((5S,8S,10aR)-8-((S)-6-(1-methyl-2-oxo-1,2-dihydropyridin-4-yl)-4-azaspiro [2.4]heptane-4-carbonyl)-3-(5-methylbenzo [d]isoxazole-3-carbonyl)-6-oxodeca-hydropyrrolo [1,2-a] [1,5]diazocin-5-yl)carbamoyl)naphthalen-2-yl)methyl) (phenoxy)phosphoryl)-L-alaninate]
IC50 [2]: ≤ 100 nM

CCCOC(=O)[C@H](C)NP(=O)(Oc1ccccc1)C(F)c1ccc2ccc(C(=O)N[C@H]3CN(C(=O)c4noc5ccc(C)cc45)CC[C@H]4CC[C@@H](C(=O)N5CCN(S(C)(=O)=O)CC5)N4C3=O)cc2c1 (stereo partly drawn) [Compound 410, propyl ((fluoro(7-(((5S,8S,10aR)-3-(5-methylbenzo [d]isoxazole-3-carbonyl)-8-(4-(methylsulfonyl)piperazine-1-carbonyl)-6-oxodeca-hydropyrrolo [1,2-a][1,5]diazocin-5-yl)carbamoyl)naphthalen-2-yl)methyl) (phenoxy)phosphoryl)-L-alaninate]
IC50 [2]: 100 to 1000 nM

CCCOC(=O)[C@H](C)NP(=O)(Oc1ccccc1)C(F)c1ccc2ccc(C(=O)N[C@H]3CN(C(=O)c4noc5ccc(Cl)cc45)CC[C@H]4CC[C@@H](C(=O)N5CCOCC5)N4C3=O)cc2c1 (stereo partly drawn) [Compound 430, propyl (((7-(((5S,8S,10aR)-3-(5-chlorobenzo[d]isoxazole-3-carbonyl)-8-(morpholine-4-carbonyl)-6-oxodecahydro-pyrrolo [1,2-a][1,5]diazocin-5-yl)carbamoyl)naphthalen-2-yl)fluoromethyl) (phenoxy)phosphoryl)-L-alaninate]
IC50 [2]: ≤ 100 nM

Cc1ccc2onc(C(=O)N3CC[C@H]4CC[C@@H](C(=O)N5C[C@H](c6ccn(C)c(=O)c6)CC56CC6)N4C(=O)[C@@H](NC(=O)c4ccc5ccc(C(F)(F)P(=O)(OCCSC(=O)CC(C)C)OCCSC(=O)CC(C)C)cc5c4)C3)c2c1 [Compound 438, S,S′-((((difluoro(7 (((5S,8S,10aR)-8-((S)-6-(1-methyl-2-oxo-1,2-dihydropyridin-4-yl)-4-azaspiro[2.4]heptane-4-carbonyl)-3-(5-methylbenzo [d]isoxazole-3-carbonyl)-6-oxodeca-hydropyrrolo [1,2-a][1,5]diazocin-5-yl)carbamoyl)naphthalen-2-yl)methyl)phosphoryl)bis (oxy))bis (ethane-2,1-diyl))bis(3-methylbutane thioate)]
IC50 [2]: ≤ 100 nM

Cc1ccc2onc(C(=O)N3CC[C@H]4CC[C@@H](C(=O)N5C[C@H](c6cc[nH]c(=O)c6)CC56CC6)N4C(=O)[C@@H](NC(=O)c4ccc5ccc(C(F)(F)P(=O)(OCCSC(=O)C(C)(C)C)OCCSC(=O)C(C)(C)C)cc5c4)C3)c2c1 [Compound 434, S,S′-((((difluoro(7 (((5S,8S,10aR)-3-(5-methylbenzo [d]isoxazole-3-carbonyl)-6-oxo-8-((S)-6-(2-oxo-1,2-dihydropyridin-4-yl)-4-azaspiro[2.4]heptane-4-carbonyl)decahydro-pyrrolo [1,2-a][1,5]diazocin-5-yl)carbamoyl)naphthalen-2-yl)methyl)phosphoryl)bis (oxy))bis (ethane-2,1-diyl)) bis(2,2-dimethyl-propanethioate)]
IC50 [2]: ≤ 100 nM

CCCOC(=O)[C@H](C)NP(=O)(Oc1ccccc1)C(F)c1ccc2ccc(C(=O)N[C@H]3CN(C(=O)c4noc5ccc(C)cc45)CC[C@H]4CC[C@@H](C(=O)N5CCOC[C@H]5c5ccccc5)N4C3=O)cc2c1 (stereo partly drawn) [Compound 413, propyl ((fluoro(7-(((5S,8S,10aR)-3-(5-methylbenzo [d]isoxazole-3-carbonyl)-6-oxo-8-((R)-3-phenyl-morpholine-4-carbonyl)decahydro-pyrrolo [1,2-a][1,5]diazocin-5-yl)carbamoyl)naphthalen-2-yl)methyl) (phenoxy)phosphoryl)-L-alaninate]
IC50 [2]: ≤ 100 nM

CCCC(=O)SCCOP(=O)(OCCSC(=O)CCC)C(F)(F)c1ccc2ccc(C(=O)N[C@H]3CN(C(=O)c4noc5ccc(C)cc45)CC[C@H]4CC[C@@H](C(=O)N5C[C@H](c6ccn(C)c(=O)c6)CC56CC6)N4C3=O)cc2c1 [Compound 439, S,S′-((((difluoro(7 (((5S,8S,10aR)-8-((S)-6-(1-methyl-2-oxo-1,2-dihydropyridin-4-yl)-4-azaspiro[2.4]heptane-4-carbonyl)-3-(5-methylbenzo [d]isoxazole-3-carbonyl)-6-oxodeca-hydropyrrolo [1,2-a][1,5]diazocin-5-yl)carbamoyl)naphthalen-2-yl)methyl)phosphoryl)bis (oxy))bis (ethane-2,1-diyl)) dibutanethioate]
IC50 [2]: ≤ 100 nM

CCCOC(=O)[C@H](C)NP(=O)(Oc1ccccc1)[C@@H](F)c1ccc2ccc(C(=O)N[C@H]3CN(C(=O)c4noc5ccc(C)cc45)CC[C@H]4CC[C@@H](C(=O)N5C(=O)N(c6cccnc6)C(=O)C56CC6)N4C3=O)cc2c1 (stereo partly drawn) [Compound 418, propyl (((R)-(7-(((5S,8S,10aR)-8-(5,7-dioxo-6-(pyridin-3-yl)-4,6-diazaspiro [2.4]heptane-4-carbonyl)-3-(5-methylbenzo [d]isoxazole-3-carbonyl)-6-oxodeca-hydropyrrolo [1,2a][1,5]diazocin-5-yl)carbamoyl)naphthalen-2-yl)fluoromethyl) (phenoxy)phosphoryl)-L-alaninate]
IC50 [2]: ≤ 100 nM
